# Values of other authors in patent US12144787B2, “Method of treating patients with a mutation in cyclin-dependent kinase-like 5 (CDKL5)” (ZOGENIX INTERNATIONAL LIMITED, priority 2019, dated 2024).
# Experiments:
# [1] = system: self-induced photosensitive seizures; conditions: four cases; patients staring into bright lights or the sun
# [2] = system: compulsive respiratory stereotypies; conditions: open label, 8 children; subset of patients
# [3] = system: pattern sensitivity-induced seizures; conditions: one child, seizures resistant to anticonvulsive treatment
# [4] = system: refractory epilepsy with self-induced seizures; conditions: children with refractory epilepsy; dose 0.5 to 1 mg/kg/day
compound,measurement,setting,value
"CCNC(C)Cc1cccc(C(F)(F)F)c1 (racemic) [fenfluramine, (RS)—N-ethyl-1-[3-(trifluoromethyl)phenyl]propan-2-amine]",response of self-induced photosensitive seizures to treatment,[1],responded to treatment
same,effect on compulsive respiratory stereotypies,[2],some beneficial effects
same,effect on self-induced seizures,[3],successfully terminated these self-induced seizures
same,number of seizures experienced by the patients,[4],reduction in the number of seizures
